These results are taken from patent publication US20160022875A1, “BONE SUBSTITUTES GRAFTED BY MIMETIC PEPTIDES OF HUMAN BMP 2 PROTEIN” (TEKNIMED, priority 2013, published 2016).

For the assay, the system named is Runx2 gene. Put plainly: Runx2 expression by RT-PCR as a function of density of peptide P1 grafted on a PET model support. It is filed as cell-based. To be noted: P1 grafted on PET at 0.4, 1.2 and 4.3 pmol/mm^2. The method, then: The peptide P1 was covalently grafted onto a model support, at three different densities. The support is made of polyethylene terephthalate (PET). The densities are 0.4 pmol/mm^2, 1.2 pmol/mm^2 and 4.3 pmol/mm^2. The expression level of the Runx2 factor by RT-PCR as a function of the density of the peptide P1 grafted at the surface of a model support was measured for these three densities (FIG. 13). The best expression level of the Runx2 gene is obtained for 1.2 pmol/mm^2 of peptide density, which corresponds to a maximum cell differentiation activity for the model support.
The activity obtained is also stable over time (after 1 week of culture): at 96 h of culture, a continuous increase in the expression of the Runx2 factor (approximately 42%) is observed.

In the case of CKIPKASSVPTELSAISMLYL [P1], the “peptide density giving the best expression level of the Runx2 gene” value came out at 1.2 pmol/mm^2.
